From ChEMBL document CHEMBL1141956, “New heterocyclic analogues of 4-(2-chloro-5-methoxyanilino)quinazolines as potent and selective c-Src kinase inhibitors” (Bioorg Med Chem Lett, 2005)
Converted amounts (≈) assume the structure as drawn.

Key:
[1] = molecular target: Proto-oncogene tyrosine-protein kinase Src (Homo sapiens, UniProt P12931); assay: Inhibitory activity against c-Src kinase
[2] = molecular target: Vascular endothelial growth factor receptor 2 (Homo sapiens, UniProt P35968); assay: Inhibitory activity against KDR
A549 = assay: Inhibition of A549 cell migration; type: functional, cell-based; details: Homo sapiens
[3] = Cmax in rat administered with 2 mg/kg, po; type: ADME, organism-based; set-up: dose 2 mg/kg, route oral; details: in vivo
Rattus norvegicus = assay: AUC(0-6 h) in rat administered with 2 mg/kg, po; type: ADME, organism-based, Plasma; set-up: time < 6 hr, dose 2 mg/kg, route oral; details: in vivo
[4] = Solubility in phosphate buffer at pH 7.4; type: physicochemical
[5] = Percent of unbound ligand in rat plasma; type: ADME, organism-based

Chain of Vascular endothelial growth factor receptor 2 (P35968 whole entry): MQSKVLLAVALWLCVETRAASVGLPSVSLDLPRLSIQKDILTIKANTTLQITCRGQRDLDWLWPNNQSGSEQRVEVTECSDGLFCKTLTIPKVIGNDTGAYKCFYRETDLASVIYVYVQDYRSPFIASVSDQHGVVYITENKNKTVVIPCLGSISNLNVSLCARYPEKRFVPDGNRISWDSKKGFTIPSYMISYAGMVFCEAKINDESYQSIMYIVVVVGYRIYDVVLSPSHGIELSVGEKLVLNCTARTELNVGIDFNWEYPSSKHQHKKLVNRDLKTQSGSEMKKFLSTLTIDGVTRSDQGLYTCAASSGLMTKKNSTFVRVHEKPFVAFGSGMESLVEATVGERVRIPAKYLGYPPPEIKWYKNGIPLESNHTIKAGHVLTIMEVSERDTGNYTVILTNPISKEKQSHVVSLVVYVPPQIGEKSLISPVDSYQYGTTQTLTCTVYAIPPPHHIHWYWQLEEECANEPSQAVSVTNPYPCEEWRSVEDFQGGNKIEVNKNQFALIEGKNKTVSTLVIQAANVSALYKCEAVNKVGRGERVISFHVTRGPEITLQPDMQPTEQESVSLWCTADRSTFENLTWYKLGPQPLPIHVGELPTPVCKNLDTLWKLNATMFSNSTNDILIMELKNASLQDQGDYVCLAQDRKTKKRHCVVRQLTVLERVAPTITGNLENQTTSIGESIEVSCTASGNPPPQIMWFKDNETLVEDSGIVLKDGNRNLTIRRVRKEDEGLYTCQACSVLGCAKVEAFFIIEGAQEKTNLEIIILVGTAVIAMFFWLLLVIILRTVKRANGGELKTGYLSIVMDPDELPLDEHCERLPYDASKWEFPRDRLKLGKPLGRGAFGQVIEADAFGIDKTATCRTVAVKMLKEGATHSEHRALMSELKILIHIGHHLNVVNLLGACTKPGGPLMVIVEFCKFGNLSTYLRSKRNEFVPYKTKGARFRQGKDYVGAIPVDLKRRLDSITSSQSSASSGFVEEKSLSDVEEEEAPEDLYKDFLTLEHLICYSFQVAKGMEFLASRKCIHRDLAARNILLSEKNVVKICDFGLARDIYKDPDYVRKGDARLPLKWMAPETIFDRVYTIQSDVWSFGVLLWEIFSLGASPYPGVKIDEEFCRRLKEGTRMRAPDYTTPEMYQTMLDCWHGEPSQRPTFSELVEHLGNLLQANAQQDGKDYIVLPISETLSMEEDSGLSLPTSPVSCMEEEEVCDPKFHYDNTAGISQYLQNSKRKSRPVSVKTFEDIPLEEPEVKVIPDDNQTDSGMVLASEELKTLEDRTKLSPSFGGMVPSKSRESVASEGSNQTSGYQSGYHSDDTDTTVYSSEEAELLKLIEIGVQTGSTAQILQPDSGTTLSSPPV
Chain of Proto-oncogene tyrosine-protein kinase Src (P12931 2-536 limits assumed): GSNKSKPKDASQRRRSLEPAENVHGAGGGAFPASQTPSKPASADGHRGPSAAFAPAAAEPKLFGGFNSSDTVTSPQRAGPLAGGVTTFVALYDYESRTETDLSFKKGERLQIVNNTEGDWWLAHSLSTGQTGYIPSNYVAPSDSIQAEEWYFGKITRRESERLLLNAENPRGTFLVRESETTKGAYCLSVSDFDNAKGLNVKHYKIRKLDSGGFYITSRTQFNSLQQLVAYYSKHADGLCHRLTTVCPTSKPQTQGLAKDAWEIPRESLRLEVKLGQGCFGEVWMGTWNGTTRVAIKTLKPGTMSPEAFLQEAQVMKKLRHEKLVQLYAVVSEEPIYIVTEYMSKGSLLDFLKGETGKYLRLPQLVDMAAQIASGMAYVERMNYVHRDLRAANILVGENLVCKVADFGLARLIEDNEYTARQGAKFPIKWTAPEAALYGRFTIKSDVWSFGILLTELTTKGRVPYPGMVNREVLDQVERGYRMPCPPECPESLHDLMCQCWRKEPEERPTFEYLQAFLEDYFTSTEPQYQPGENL

| SMILES | IC50 [1] | IC50 [2] | IC50 (A549) | Cmax [3] | AUC (Rattus norvegicus) | solubility [4] | fraction unbound [5] |
| --- | --- | --- | --- | --- | --- | --- | --- |
| COc1ncc(Cl)c(Nc2ncnc3cc(OCCN4CCN(C(C)=O)CC4)cc(OC(C)C)c23)n1 | 15 nM | 15000 nM | 270 nM | – | – | – | – |
| COc1ccc(Cl)c(Nc2ncnc3cc(OCCCN4CCOCC4)cc(OC4CCOCC4)c23)n1 | 5 nM | 5500 nM | 160 nM | – | – | – | – |
| COc1cnc(Cl)c(Nc2ncnc3cc(OCCCN4CCOCC4)cc(OC4CCOCC4)c23)c1 | 7 nM | 30 nM | 290 nM | – | – | – | – |
| COc1ccc(Cl)c(Nc2ncnc3cc(OCCCN4CCCC4)cc(OC(C)C)c23)n1 | 6 nM | 900 nM | 140 nM | – | – | – | – |
| COc1ccc(Cl)c(Nc2ncnc3cc(OCCN4CCCC4)cc(OC(C)C)c23)n1 | 15 nM | 3600 nM | 80 nM | – | – | – | – |
| COc1ccc(Cl)c(Nc2ncnc3cc(OCCN4CCOCC4)cc(OC(C)C)c23)n1 | 20 nM | 2900 nM | 130 nM | – | – | – | – |
| COc1ccc(Cl)c(Nc2ncnc3cc(OCCCN4CCN(C)CC4)cc(OC(C)C)c23)n1 | < 4 nM | 680 nM | 90 nM | – | – | – | – |
| COc1ccc(Cl)c(Nc2ncnc3cc(OCCN4CCN(C)CC4)cc(OC(C)C)c23)n1 | 7 nM | 570 nM | 170 nM | – | – | – | – |
| COc1ccc(Cl)c(Nc2ncnc3cc(OCCN4CCN(C(C)=O)CC4)cc(OC(C)C)c23)n1 | 10 nM | 6300 nM | 90 nM | 310 nM | 0.64 uMh | 43 µM (≈ 22.1 µg/mL) | 0.08 |
| COc1ccc(Cl)c(Nc2ncnc3cc(OCCCN4CCN(C(C)=O)CC4)cc(OC(C)C)c23)n1 | < 4 nM | 2700 nM | 90 nM | – | – | – | – |

Other lines, results leading:

| IC50 [1] | IC50 [2] | IC50 (A549) | Cmax [3] | AUC (Rattus norvegicus) | solubility [4] | fraction unbound [5] | SMILES |
| --- | --- | --- | --- | --- | --- | --- | --- |
| 35 nM | < 2 nM | – | – | – | – | – | COc1cc(Nc2ncnc3cc(OCCCN4CCOCC4)cc(OC(C)C)c23)c(Cl)cn1 |
| 5 nM | 30 nM | – | – | – | – | – | COc1cnc(Cl)c(Nc2ncnc3cc(OCCCN4CCOCC4)cc(OC(C)C)c23)c1 |
| 8 nM | 2800 nM | 140 nM | 420 nM | 0.61 uMh | – | – | COc1cnc(Cl)c(Nc2ncnc3cc(OCCN4CCN(C(C)=O)CC4)cc(OC(C)C)c23)n1 |
| < 4 nM | 1900 nM | 90 nM | – | – | – | – | COc1ccc(Cl)c(Nc2ncnc3cc(OCCCN4CCOCC4)cc(OC(C)C)c23)n1 |
| 10 nM | 400 nM | – | – | – | – | – | COc1ccc(Cl)c(Nc2ncnc3cc(OCCCN4CCOCC4)cc(OC4CCOCC4)c23)c1 |
| 400 nM | 80 nM | – | – | – | – | – | COc1cc(Nc2ncnc3cc(OCCCN4CCOCC4)cc(OC4CCOCC4)c23)c(Cl)cn1 |
| 40 nM | 30 nM | – | – | – | – | – | COc1ccc(Cl)c(Nc2ncnc3cc(OCCCN4CCOCC4)cc(OC(C)C)c23)c1 |
